Assay [1] deals with Somatostatin receptor type 2 (Homo sapiens, UniProt P30874).
Assay [2] has as its target Somatostatin receptor type 4 (Homo sapiens, UniProt P31391).
Assay [3] deals with Somatostatin receptor type 1 (Homo sapiens, UniProt P30872).
Assay [4] concerns the target Somatostatin receptor type 3 (Homo sapiens, UniProt P32745).

The structures appear in SMILES notation. Bridge positions count the residues as written; N and C are the ends. Square brackets hold non-standard residues; d marks the D form. Peptide text beside a SMILES is read from it. * marks the point of attachment. NH(1-naphthylmethyl) = c1ccc2c(CN*)cccc2c1; Phe(4-Cl) = N[C@@H](Cc1ccc(Cl)cc1)C(=O)O; dPhe(4-Cl) = N[C@H](Cc1ccc(Cl)cc1)C(=O)O; 2Nal = N[C@@H](Cc1ccc2ccccc2c1)C(=O)O; d1Nal = N[C@H](Cc1cccc2ccccc12)C(=O)O; d2Nal = N[C@H](Cc1ccc2ccccc2c1)C(=O)O; 1Nal = N[CH](Cc1cccc2ccccc12)C(=O)O; Thr(ol) = C[CH](O)[CH](N)CO; Abu = CC[C@H](N)C(=O)O

Somatostatin receptor type 3, sequence (P32745 whole entry): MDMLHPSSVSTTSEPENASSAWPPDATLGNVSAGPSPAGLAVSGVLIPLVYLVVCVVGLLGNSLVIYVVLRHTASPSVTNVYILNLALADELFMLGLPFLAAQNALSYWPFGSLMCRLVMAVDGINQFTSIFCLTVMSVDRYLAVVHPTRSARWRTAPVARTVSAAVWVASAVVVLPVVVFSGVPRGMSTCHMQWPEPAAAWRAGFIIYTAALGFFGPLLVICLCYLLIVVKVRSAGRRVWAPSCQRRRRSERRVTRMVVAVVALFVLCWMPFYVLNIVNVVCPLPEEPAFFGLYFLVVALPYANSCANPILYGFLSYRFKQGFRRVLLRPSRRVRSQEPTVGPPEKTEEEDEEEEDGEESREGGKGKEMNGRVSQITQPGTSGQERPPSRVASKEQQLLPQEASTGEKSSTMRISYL
Somatostatin receptor type 2, sequence (P30874 whole entry): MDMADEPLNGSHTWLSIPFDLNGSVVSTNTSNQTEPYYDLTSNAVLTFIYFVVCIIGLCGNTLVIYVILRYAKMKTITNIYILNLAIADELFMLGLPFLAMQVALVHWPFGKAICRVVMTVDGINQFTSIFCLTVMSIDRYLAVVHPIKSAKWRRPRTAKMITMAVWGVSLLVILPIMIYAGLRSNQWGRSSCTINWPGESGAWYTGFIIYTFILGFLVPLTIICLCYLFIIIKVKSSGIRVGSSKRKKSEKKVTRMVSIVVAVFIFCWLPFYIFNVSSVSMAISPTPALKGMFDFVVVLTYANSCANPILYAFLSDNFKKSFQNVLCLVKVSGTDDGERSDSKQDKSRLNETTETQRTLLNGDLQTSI
Somatostatin receptor type 1, sequence (P30872 whole entry): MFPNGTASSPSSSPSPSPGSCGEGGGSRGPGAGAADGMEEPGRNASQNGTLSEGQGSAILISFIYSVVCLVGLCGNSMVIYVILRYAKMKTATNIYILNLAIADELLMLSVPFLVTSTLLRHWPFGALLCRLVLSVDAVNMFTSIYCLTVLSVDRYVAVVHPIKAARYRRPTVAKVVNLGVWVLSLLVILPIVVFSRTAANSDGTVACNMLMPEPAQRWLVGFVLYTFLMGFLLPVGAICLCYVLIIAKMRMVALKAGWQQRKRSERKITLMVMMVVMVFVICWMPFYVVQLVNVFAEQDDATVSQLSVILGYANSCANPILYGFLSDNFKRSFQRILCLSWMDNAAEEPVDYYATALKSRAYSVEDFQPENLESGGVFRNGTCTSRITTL
Somatostatin receptor type 4, sequence (P31391 whole entry): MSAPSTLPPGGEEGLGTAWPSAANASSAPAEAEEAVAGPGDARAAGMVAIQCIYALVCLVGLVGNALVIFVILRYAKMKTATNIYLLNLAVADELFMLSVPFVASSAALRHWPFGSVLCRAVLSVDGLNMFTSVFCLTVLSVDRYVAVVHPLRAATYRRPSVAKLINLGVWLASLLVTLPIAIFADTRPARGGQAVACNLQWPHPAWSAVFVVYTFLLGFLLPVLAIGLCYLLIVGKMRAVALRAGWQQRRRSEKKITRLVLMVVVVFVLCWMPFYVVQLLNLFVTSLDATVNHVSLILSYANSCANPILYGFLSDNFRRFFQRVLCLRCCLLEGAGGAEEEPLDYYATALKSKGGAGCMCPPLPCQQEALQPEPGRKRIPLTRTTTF

With `CC(C)[C@H](NC(=O)[C@H](CCCCN)NC(=O)[C@@H](Cc1c[nH]c2ccccc12)NC(=O)[C@H](Cc1ccc(O)cc1)NC(=O)[C@H](C)NC(=O)[C@H](N)Cc1ccc(Cl)cc1)C(=O)N[C@@H](C)C(=O)N[C@@H](Cc1ccc2ccccc2c1)C(N)=O` [CAS_150155-67-2] (H-[dPhe(4-Cl)]AY[dW]KVA[2Nal]-NH2), the Ki worked out at 55.5 nM in assay [1] and 1000 nM in assay [2].

For the compound `CC(C)[C@H](NC(=O)[C@H](CCCCN)NC(=O)[C@@H](Cc1c[nH]c2ccccc12)NC(=O)[C@H](Cc1ccc(O)cc1)NC(=O)[C@H](Cc1ccccc1)NC(=O)[C@H](N)Cc1ccccc1)C(=O)N[C@@H](Cc1ccccc1)C(=O)N[C@H](C(N)=O)[C@@H](C)O` [BIM-23058] (H-[dF]FY[dW]KVFT-NH2), the Ki in assay [1] was 9.8 nM; in assay [3], 115 nM; in assay [4], 1.4 nM; in assay [2] it was 8.3 nM.

For `CC(C)[C@H](NC(=O)[C@H](CCCCN)NC(=O)[C@@H](Cc1c[nH]c2ccccc12)NC(=O)[C@H](Cc1ccc(O)cc1)NC(=O)[C@H](Cc1ccccc1)NC(=O)[C@H](N)Cc1ccccc1)C(=O)N[C@@H](Cc1ccccc1)C(=O)N[C@H](Cc1ccccc1)C(N)=O` [D-Phe-Phe-Tyr-D-Trp-Lys-Val-Phe-D-Phe-NH2] (H-[dF]FY[dW]KVF[dF]-NH2), the inhibition constant (Ki) came out at 1000 nM in assay [1] and 500 nM in assay [2].

Consider `CC[C@H](NC(=O)[C@@H](N)Cc1ccc(Cl)cc1)C(=O)N[C@@H](Cc1ccc(O)cc1)C(=O)N[C@H](Cc1c[nH]c2ccccc12)C(=O)N[C@@H](CCCCN)C(=O)N[C@H](C(=O)N[C@@H](C)C(=O)N[C@H](Cc1ccccc1)C(N)=O)C(C)C` [BIM 23067] (H-[Phe(4-Cl)][Abu]Y[dW]KVA[dF]-NH2), for which the Ki is 44.4 nM in assay [1], 1000 nM in assay [3], 14.6 nM in assay [4] and 1000 nM in assay [2].

As to `CC(C)C1NC(=O)C(CCCCN)NC(=O)C(Cc2c[nH]c3ccccc23)NC(=O)C(Cc2ccc(O)cc2)NC(=O)C(NC(=O)C(N)Cc2cccc3ccccc23)CSSCC(C(=O)NC(CO)C(C)O)NC1=O` (centres undefined) [DC23-60] (H-[1Nal]CYWKVC[Thr(ol)]; disulfide 2-7; configuration not given here), the Ki amounted to 0.26 nM in assay [1], 70.4 nM in assay [3], 73 nM in assay [4] and 1000 nM in assay [2].

For the compound `CC(O)C1NC(=O)C(CCCCN)NC(=O)C(Cc2c[nH]c3ccccc23)NC(=O)C(Cc2ccc(O)cc2)NC(=O)C(NC(=O)C(N)Cc2ccccc2)CSSCC(C(=O)NCc2cccc3ccccc23)NC1=O` (centres undefined) [BIM 23060] (H-FCYWKTC-{NH(1-naphthylmethyl)}; disulfide 2-7; configuration not given here), the Ki in assay [1] is 0.71 nM; in assay [3], 61 nM; in assay [4], 14.6 nM; in assay [2], 56 nM.

In the case of `CC(O)C1NC(=O)C(CCCCN)NC(=O)C(Cc2c[nH]c3ccccc23)NC(=O)C(Cc2ccccc2)NC(=O)C(NC(=O)C(N)Cc2ccccc2)CSSCC(C(=O)NCc2cccc3ccccc23)NC1=O` (centres undefined) [EC5-21] (H-FCFWKTC-{NH(1-naphthylmethyl)}; disulfide 2-7; configuration not given here), the values for the inhibition constant (Ki) in assay [1], in assay [4] and in assay [2] were 0.028 nM, 69 nM and 207 nM, respectively.

Take `CC(C)[C@H](NC(=O)[C@H](CCCCN)NC(=O)[C@@H](Cc1c[nH]c2ccccc12)NC(=O)[C@H](Cc1ccc(O)cc1)NC(=O)[C@H](C)NC(=O)[C@H](N)Cc1ccccc1)C(=O)N[C@@H](C)C(=O)N[C@@H](Cc1ccc2ccccc2c1)C(N)=O` [L-Alaninamide,D-phenylalanyl-L-alanyl-L-tyrosyl-D-tryptophyl-L-lysyl-L-valyl-L-alanyl-3-(2-naphthalenyl)-(9CI)] (H-[dF]AY[dW]KVA[2Nal]-NH2): the inhibition constant (Ki) was found to be 8.3 nM in assay [1] and 1000 nM in assay [2].

With `C[C@@H](O)[C@H](NC(=O)[C@H](Cc1ccccc1)NC(=O)[C@@H](NC(=O)[C@H](CCCCN)NC(=O)[C@@H](Cc1c[nH]c2ccccc12)NC(=O)[C@H](Cc1ccc(O)cc1)NC(=O)[C@H](Cc1ccc(Cl)cc1)NC(=O)[C@H](N)Cc1ccccc1)[C@@H](C)O)C(N)=O` [BIM 23068] (H-[dF][Phe(4-Cl)]Y[dW]KTFT-NH2), the Ki in assay [1] was 1.55 nM; in assay [4] it was 1.54 nM; in assay [2] it was 9.8 nM.

On to `CC1NC(=O)C(CCCCN)NC(=O)C(Cc2c[nH]c3ccccc23)NC(=O)C(Cc2ccc(O)cc2)NC(=O)C(NC(=O)C(N)Cc2ccccc2)CSSCC(C(=O)NCc2cccc3ccccc23)NC1=O` (centres undefined) [BIM 23034] (H-FCYWKAC-{NH(1-naphthylmethyl)}; disulfide 2-7; configuration not given here), for which the results for the Ki in assay [1], in assay [4] and in assay [2] were 2.7 nM, 7.7 nM and 27 nM, respectively.

On to `CC(C)[C@H](NC(=O)[C@H](CCCCN)NC(=O)[C@@H](Cc1c[nH]c2ccccc12)NC(=O)[C@H](Cc1ccc(O)cc1)NC(=O)[C@H](Cc1ccccc1)NC(=O)[C@H](N)Cc1ccccc1)C(=O)N[C@@H](Cc1ccccc1)C(=O)N[C@H](Cc1cccc2ccccc12)C(N)=O` [BIM 23056] (H-[dF]FY[dW]KVF[d1Nal]-NH2), for which the inhibition constant Ki was 1000 nM in assay [1], 142 nM in assay [3], 10.8 nM in assay [4] and 16.6 nM in assay [2].

In the case of `CC(C)[C@@H]1NC(=O)[C@H](CCCCN)NC(=O)[C@@H](Cc2c[nH]c3ccccc23)NC(=O)[C@H](Cc2ccc(O)cc2)NC(=O)[C@@H](NC(=O)[C@H](N)Cc2ccc3ccccc3c2)CSSC[C@@H](C(=O)N[C@H](C(N)=O)[C@@H](C)O)NC1=O` [3-(2-Naphtyl)-D-Ala-L-Cys(1)-L-Tyr-D-Trp-L-Lys-L-Val-L-Cys(1)-L-Thr-NH2], the results for the Ki in assay [1] and in assay [4] were 1.8 nM and 43 nM, respectively.

As to `C[C@@H](O)[C@H](NC(=O)[C@H](Cc1ccccc1)NC(=O)[C@@H](NC(=O)[C@H](CCCCN)NC(=O)[C@@H](Cc1c[nH]c2ccccc12)NC(=O)[C@H](Cc1ccc(O)cc1)NC(=O)[C@H](Cc1ccc(Cl)cc1)NC(=O)[C@H](N)Cc1ccc2ccccc2c1)[C@@H](C)O)C(N)=O` [CAS_150155-63-8] (H-[d2Nal][Phe(4-Cl)]Y[dW]KTFT-NH2), the Ki came out at 26.2 nM in assay [1] and 1000 nM in assay [2].

Consider `C[C@@H](O)[C@H](NC(=O)[C@H](Cc1ccccc1)NC(=O)[C@@H](NC(=O)[C@H](CCCCN)NC(=O)[C@@H](Cc1c[nH]c2ccccc12)NC(=O)[C@H](Cc1ccccc1)NC(=O)[C@H](Cc1ccccc1)NC(=O)[C@H](N)Cc1ccccc1)[C@@H](C)O)C(N)=O` [CAS_133073-82-2] (H-[dF]FF[dW]KTFT-NH2), for which the Ki in assay [1] is 13.5 nM; in assay [3], 31.3 nM; in assay [2], 141 nM.

`CC(C)[C@@H]1NC(=O)[C@H](CCCCN)NC(=O)[C@@H](Cc2c[nH]c3ccccc23)NC(=O)[C@H](Cc2ccc(O)cc2)NC(=O)[C@@H](NC(=O)[C@H](N)Cc2ccc3ccccc3c2)CSSC[C@@H](C(=O)N[C@@H](Cc2ccc3ccccc3c2)C(N)=O)NC1=O` [BIM 23042] (H-[d2Nal]CY[dW]KVC[2Nal]-NH2; disulfide 2-7): the Ki in assay [1] was determined as 0.24 nM; in assay [2] it was 1000 nM.

On to `CC[C@@H]1NC(=O)[C@H](CCCCN)NC(=O)[C@@H](Cc2c[nH]c3ccccc23)NC(=O)[C@H](Cc2ccc(O)cc2)NC(=O)[C@@H](NC(=O)[C@H](N)Cc2ccccc2)CSSC[C@@H](C(=O)N[C@H](C(N)=O)[C@@H](C)O)NC1=O` [D-Phe-L-Cys(1)-L-Tyr-D-Trp-L-Lys-L-Abu-L-Cys(1)-L-Thr-NH2], for which the values for the Ki in assay [4] and in assay [2] were 8.2 nM and 1000 nM, respectively.

Take `CC(C)C[C@H](NC(=O)[C@H](C)NC(=O)[C@@H]1CCCN1C(=O)[C@H](CC(N)=O)NC(=O)[C@H](CO)NC(=O)[C@H](CC(N)=O)NC(=O)[C@H](C)NC(=O)[C@@H](N)CO)C(=O)N[C@@H](C)C(=O)N1CCC[C@H]1C(=O)N[C@@H](CCCN=C(N)N)C(=O)N[C@@H](CCC(=O)O)C(=O)N[C@@H](CCCN=C(N)N)C(=O)N[C@@H](CCCCN)C(=O)N[C@@H](C)C(=O)NCC(=O)N[C@H]1CSSC[C@@H](C(=O)O)NC(=O)[C@H](CO)NC(=O)[C@H]([C@@H](C)O)NC(=O)[C@H](Cc2ccc(O)cc2)NC(=O)[C@H]([C@@H](C)O)NC(=O)[C@H](CCCCN)NC(=O)[C@@H](Cc2c[nH]c3ccccc23)NC(=O)[C@H](Cc2ccccc2)NC(=O)[C@H](Cc2ccccc2)NC(=O)[C@H](CC(N)=O)NC(=O)[C@H](CCCCN)NC1=O` [Leu8, D-Trp22, Tyr25 SST-28] (H-SANSNPALAPRERKAGCKNFF[dW]KTYTSC-OH; disulfide 17-28): the inhibitory constant (Ki) in assay [1] amounted to 0.18 nM; in assay [3], 0.41 nM; in assay [4], 0.16 nM; in assay [2], 0.03 nM.

For `CC(C)[C@H](NC(=O)[C@H](CCCCN)NC(=O)[C@@H](Cc1c[nH]c2ccccc12)NC(=O)[C@H](Cc1ccc(O)cc1)NC(=O)[C@H](Cc1ccc(Cl)cc1)NC(=O)[C@H](N)Cc1ccccc1)C(=O)N[C@@H](Cc1ccccc1)C(=O)N[C@H](C(N)=O)[C@@H](C)O` [BIM 23057] (H-[dF][Phe(4-Cl)]Y[dW]KVFT-NH2), the values for the inhibitory constant (Ki) in assay [1] and in assay [2] were 1000 nM and 38.5 nM, respectively.

With `CC(C)[C@H](NC(=O)[C@H](CCCCN)NC(=O)[C@@H](Cc1c[nH]c2ccccc12)NC(=O)[C@H](Cc1ccc(O)cc1)NC(=O)[C@H](C)NC(=O)[C@H](N)Cc1ccc2ccccc2c1)C(=O)N[C@@H](C)C(=O)N[C@H](C(N)=O)[C@@H](C)O` [D-Nal-Ala-Tyr-D-Trp-Lys-Val-Ala-Thr-NH2] (H-[d2Nal]AY[dW]KVAT-NH2), the Ki in assay [1] worked out at 5.9 nM; in assay [4], 13.1 nM; in assay [2] it was 1000 nM.

For the compound `C[C@H](NC(=O)[C@H](N)Cc1ccccc1)C(=O)N[C@@H](Cc1ccccc1)C(=O)N[C@H](Cc1c[nH]c2ccccc12)C(=O)N[C@@H](CCCCN)C(=O)N[C@H](C(=O)N[C@@H](C)C(=O)N[C@H](C(N)=O)[C@@H](C)O)[C@@H](C)O` [BIM 23051] (H-[dF]AF[dW]KTAT-NH2), the Ki in assay [1] is 1000 nM; in assay [2] it was 49 nM.

For `CC(C)[C@@H]1NC(=O)[C@H](CCCCN)NC(=O)[C@@H](Cc2c[nH]c3ccccc23)NC(=O)[C@H](Cc2ccc(O)cc2)NC(=O)[C@@H](C)N(C)C(=O)[C@H](Cc2ccccc2)NC1=O`, the Ki in assay [3] stood at 107 nM; in assay [4] it was 14.6 nM.

As a reminder, the Ki is a measure of affinity in units of concentration, obtained from inhibition or displacement.
